The values that follow come from patent US8716242B2, “β-hairpin peptidomimetics” (priority 2009, dated 2014).

Series [1] concerns human red blood cells (hRBC). Nature of the series: Hemolysis of human red blood cells. Type of series: cell-based. Particulars: 20% hRBC, 1 h, 37° C. Here is the method:
The peptides were tested for their hemolytic activity against human red blood cells (hRBC). Fresh hRBC were washed three times with phosphate buffered saline (PBS) and centrifuged for 10 min at 2000×g. Compounds (100 μM) were incubated with 20% hRBC (v/v) for 1 h at 37° C. and shaking at 300 rpm. The final erythrocyte concentration was approximately 0.9×10^9 cells/mL. A value of 0% and 100% cell lyses, respectively, was determined by incubation of hRBC in the presence of PBS containing 0.001% acetic acid and 2.5% Triton X-100 in H2O, respectively. The samples were centrifuged, the supernatants were 8-fold diluted in PBS buffer and the optical densities (OD) were measured at 540 nm. The 100% lyses value (OD540H2O) gave an OD540 of approximately 0.5-1.0.
(§1) Percent hemolysis was calculated as follows: (OD540peptide/OD540H2O)×100%. 2.6. Plasma Stability

A short description of series [2]: Plasma stability in mouse plasma. Type of series: in vitro ADME. Particulars: mouse plasma, 37° C.; for remaining at 24 h, 10 μM: 1440 min, read-out: mouse pl. cpd left at 1440 min. The protocol:
as §1
(§2) The stability of the peptides in human and mouse plasma was determined by applying the following method: 346.5 μL/deep well of freshly thawed human plasma (Basler Blutspendedienst) and mouse plasma (Harlan Sera-Lab, UK), respectively, were spiked with 3.5 μL/well of compound dissolved in DMSO/H2O ([…] [v/v], 1 mM, triplicate) and incubated at 37° C. At t=0, 15, 30, 60, 120, 240 and 1440 min aliquots of 50 μL were transferred to filtration plate wells containing 150 μL/well of 2% formic acid in acetonitrile. Following shaking for 2 min the occurred suspensions were filtrated by vacuum and 50 μL of each filtrate was mixed with 100 μL of 1% formic acid in H2O. After transfer to a propylene microtiter plate, the filtrates were analyzed by LC/MS as follows: Column: Waters, XBridge C18, mobile phases: (A) water+0.1% formic acid and (B) acetonitrile/water, 95/5 (v/v)+0.1% formic acid, gradient: 5%-100% (B) in 2 minutes, electrospray ionization, MRM detection (triple quadrupole). The peak areas were determined and triplicate values are averaged. The stability is expressed in percent of the initial value at t=0. (tx/t0×100). By using the TREND function of EXCEL (Microsoft Office 2003) T1/2 were determined.

Series [3] can be described thus: Plasma stability in human plasma. Type of series: in vitro ADME. The settings on record: human plasma, 37° C.; for remaining at 24 h, 10 μM: 1440 min, read-out: human pl. cpd left at 1440 min; for human pl. T1/2: up to 1440 min. Here is the method:
as §1, §2

Series [4] in a line: Cytotoxicity, MTT reduction assay, HELA cells. It counts as cell-based. Particulars: human, HELA cells (Acc57), 12.5-50 μM. Here is the method:
(§3) Mouse pre-B cells were cultured in RPMI1640 plus 5% FBS, antibiotic/antimycotic, non essential amino acid, 50 μM β-mercaptoethanol and 1 mM natrium pyruvate. HELA cells were maintained in RPMI1640 plus 10% FBS, pen/strept and 2 mM L-glutamine. Cos-7 cells were grown in DMEM medium with […] glucose supplemented with 10% FCS, pen/strept and 2 mM L-glutamine. All cell lines were grown at 37° C. at 5% CO2. Cell media, media supplements, PBS-buffer, HEPES, antibiotic/antimycotic, pen/strept, non essential amino acid, L-glutamine, β-mercaptoethanol and sera were purchased from Gibco (Pailsey, UK). All fine chemicals were supplied by Merck (Darmstadt, Germany).
(§4) The cytotoxicity of the peptides to HELA cells (Acc57) and COS-7 cells (CRL-1651) was determined using the MTT reduction assay (T. Mossman, J. Immunol. Meth. 1983, 65, 55-63; M. V. Berridge, A. S. Tan, Arch. Biochem. Biophys. 1993, 303, 474-482). Briefly, the method was as follows: 4000 HELA cells/well and 3400 COS-7 cells/well were seeded and grown in 96-well microtiter plates for 24 h at 37° C. at 5% CO2. Thereafter, time zero (Tz) was determined by MTT reduction (see below). The supernatant of the remaining wells was discarded, and fresh medium and compounds in serial dilutions (12.5, 25 and 50 μM, triplicates) were pipetted into the wells. After incubation of the cells for 48 h at 37° C. at 5% CO2 the supernatant was discarded again and 100 μL MTT reagent (0.5 mg/mL in RPMI1640 and DMEM, respectively)/well was added. Following incubation at 37° C. for 2-4 h the media were aspirated and the cells were spiked (100 μL isopropanol/well). The absorbance of the solubilized formazan was measured at 595 nm (OD595peptide). For each concentration averages were calculated from triplicates. The percentage of growth was calculated as follows: (OD595peptide-OD595Tz-OD595Empty well)/(OD595Tz-OD595Empty well)×100%. The GI50 (Growth Inhibition) concentrations were calculated for each peptide by using a trend line function for the concentrations (50, 25, 12.5 and 0 μM), the corresponding percentages and the value 50, (=TREND (C50: C0, %50:%0,50).

A short description of series [5]: Cytotoxicity, MTT reduction assay, COS-7 cells. It counts as cell-based. Particulars: African green monkey, COS-7 cells (CRL-1651), 12.5-50 μM. Here is the method: as §3, §4
Series [6] deals with T1, human CXCR4 (Homo sapiens, UniProt P61073).
T1 construct: expressed in transfected cells; host or cells: mouse pre-B cell line 300-19
Put plainly: Ca2+-assay: CXCR4-antagonizing activity (SDF-1 induced calcium mobilization). It counts as cell-based. The text has this: 2.3. Ca^2+-Assay: CXCR4-Antagonizing Activity of the Peptides
Increases in intracellular calcium were monitored using a Flexstation 384 (Molecular Devices, Sunnyvale, Calif.) to assay the peptides for CXCR4 antagonism in a mouse pre-B cell line 300-19 stably transfected with human CXCR4 (E. Oberlin, A. Amara, F. Bachelerie, C. Bessia, J.-L. Virelizier, F. Arenzana-Seisdedos, O, Schwartz, J.-M. Heard, I. Clark-Lewis, D. F. Legler, M. Loetscher, M. Baggiolini, B. Moser, Nature 1996, 382, 833-835; M. Loetscher, T. Geiser, T. O'Reilly, R. Zwalen, M. Baggiolini, B. Moser, J. Biol. Chem. 1994, 269, 232-237; M. D'Apuuo, A. Rolink, M. Loetscher, J. A. Hoxie, I. Clark-Lewis, F. Melchors, M. Baggiolini, B. Moser, Eur. J. Immunol. 1997, 27, 1788-1793). The cells were batch loaded with the Calcium 4 Assay kit (Molecular Devices) in assay buffer (Hanks Balanced salt solution [HBSS], 20 mM HEPES, pH 7.4, 0.1% BSA) for 1 h at room temperature and labeled cells were dispensed into black well assays plates (Costar No. 3603). Calcium mobilization induced by stromal-derived factor-1 (SDF-1) was measured in the Flexstation 384 (excitation: 485 nm; emission: 525 nm) for 90 seconds. Antagonist activity of peptides was determined by spiking the cells with compounds prior to SDF-1 addition. Dose response curves (compound concentration versus % maximum response for SDF-1) were determined for each antagonist and IC50 values were calculated by fitting the data to a four parameter logistic equation using SoftmaxPro 4.8 (Molecular Devices).

[7] abbreviates: mouse pre-B cell line 300-19 transfected with human CXCR4, SDF-1 induced Ca2+ mobilization, read-out: IC50% [nM] ± SD, CXCR4 receptor.

Each structure is given as a SMILES string. Like-named read-outs stand apart in the source and are kept apart here. Bridge positions count the residues as written; N and C are the ends. Square brackets hold non-standard residues; d marks the D form. Peptide text beside a SMILES is read from it. * marks the point of attachment. Myristoyl = CCCCCCCCCCCCCC(=O)*; Lauroyl = CCCCCCCCCCCC(=O)*; Decanoyl = CCCCCCCCCC(=O)*; Octanoyl = CCCCCCCC(=O)*; Dab = NCC[C@H](N)C(=O)O; X3 = CCCCCCCCCC* Some results are limits rather than exact numbers.

T1 sequence (P61073 whole entry): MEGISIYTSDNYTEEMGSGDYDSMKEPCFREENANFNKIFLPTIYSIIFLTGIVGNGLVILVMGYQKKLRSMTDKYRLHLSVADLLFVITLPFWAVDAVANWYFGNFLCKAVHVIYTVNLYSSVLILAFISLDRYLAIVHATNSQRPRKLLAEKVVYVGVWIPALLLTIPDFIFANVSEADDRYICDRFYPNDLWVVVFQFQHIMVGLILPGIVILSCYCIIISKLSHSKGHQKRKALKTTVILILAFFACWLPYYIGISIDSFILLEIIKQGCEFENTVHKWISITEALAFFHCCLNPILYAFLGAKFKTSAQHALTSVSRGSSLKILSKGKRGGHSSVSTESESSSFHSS

For `CCCCCCCCCCCCCC(=O)NCCCC[C@@H]1NC(=O)[C@H](Cc2ccc(O)cc2)NC(=O)[C@@H]2CSSC[C@H](NC(=O)[C@H](C)NC(=O)[C@H](Cc3c[nH]cn3)NC(=O)[C@H](Cc3ccc(O)cc3)NC(=O)[C@@H]3CCCN3C(=O)[C@H]3CCCN3C(=O)[C@H](CCCCN)NC1=O)C(=O)N[C@@H](CCCNC(=N)N)C(=O)N[C@@H](C)C(=O)N1CCC[C@@H]1C(=O)N[C@@H](CCN)C(=O)N[C@@H](CCCNC(=N)N)C(=O)N[C@@H](Cc1ccc(O)cc1)C(=O)N2` [Ex. 19] (cyclo(YHACRA[dP][Dab]RYCYK(Myristoyl)K[dP]P); disulfide 4-11), the “Hemolysis at 100 μM” value in series [1] is 1.2%. For the same compound, the remaining at 24 h, 10 μM came to 76% in series [2] and 99% in series [3]. In addition, the “mouse pl. T1/2” value in series [2] (up to 1440 min) came out at 1440 min. In addition, the “human pl. T1/2” value in series [3] was found to be 1440 min. Further, the GI50 at 48 h is over 32 µM in series [4] and over 50 µM in series [5]. Besides, in series [6] (setting [7]), the 50% inhibitory concentration (IC50) came to 9.1 ± 4.2 nM.

Turning to `CCCCCCCC(=O)NCCCC[C@@H]1NC(=O)[C@H](Cc2ccc(O)cc2)NC(=O)[C@@H]2CSSC[C@H](NC(=O)[C@H](Cc3ccc(O)cc3)NC(=O)[C@H](Cc3c[nH]cn3)NC(=O)[C@H](Cc3ccc(O)cc3)NC(=O)[C@@H]3CCCN3C(=O)[C@H]3CCCN3C(=O)[C@H](CCCCN)NC1=O)C(=O)N[C@@H](CO)C(=O)N[C@@H](C)C(=O)N1CCC[C@@H]1C(=O)N[C@@H](CCN)C(=O)N[C@@H](CCCNC(=N)N)C(=O)N[C@@H](Cc1ccc(O)cc1)C(=O)N2` [Ex. 12] (cyclo(YHYCSA[dP][Dab]RYCYK(Octanoyl)K[dP]P); disulfide 4-11), in series [1], the “Hemolysis at 100 μM” value is on record as 0.2%. The remaining at 24 h, 10 μM in series [2] was 46%; in series [3], 88%. In addition, in series [2] (up to 1440 min, read-out: mouse pl. T1/2), the half-life at 10 μM was determined as 420 min. For the same compound, in series [3], the “human pl. T1/2” value turned out to be 1440 min. The concentration for 50% growth inhibition (GI50) at 48 h in series [4] and in series [5] was over 50 µM throughout. For the same compound, the IC50 in series [6] (setting [7]) worked out at 1.8 ± 1 nM.

In the case of `CCCCCCCCCC(=O)NCCCC[C@@H]1NC(=O)[C@H](Cc2ccc(O)cc2)NC(=O)[C@@H]2CSSC[C@H](NC(=O)[C@H]([C@@H](C)O)NC(=O)[C@H](Cc3c[nH]cn3)NC(=O)[C@H](Cc3ccc(O)cc3)NC(=O)[C@@H]3CCCN3C(=O)[C@H]3CCCN3C(=O)[C@H](CCCCN)NC1=O)C(=O)N[C@@H](CCCNC(=N)N)C(=O)NCC(=O)N1CCC[C@@H]1C(=O)N[C@@H](CCN)C(=O)N[C@@H](CCCNC(=N)N)C(=O)N[C@@H](Cc1ccc(O)cc1)C(=O)N2` [Ex. 15] (cyclo(YHTCRG[dP][Dab]RYCYK(Decanoyl)K[dP]P); disulfide 4-11), in series [1], the “Hemolysis at 100 μM” value turned out to be 0.6%. In series [3], the remaining at 24 h, 10 μM is 73% and the “human pl. T1/2” value worked out at 1440 min. The GI50 at 48 h in series [4] is over 50 µM. This compound displayed a GI50 at 48 h in series [5] of over 40 µM. Besides, the IC50 in series [6] (setting [7]) was determined as 11.2 ± 4 nM.

`CCCCCCCCCCOC[C@@H]1NC(=O)[C@H](Cc2ccc(O)cc2)NC(=O)[C@@H]2CSSC[C@H](NC(=O)[C@H]([C@@H](C)O)NC(=O)[C@H](Cc3c[nH]cn3)NC(=O)[C@H](Cc3ccc(O)cc3)NC(=O)[C@@H]3CCCN3C(=O)[C@H]3CCCN3C(=O)[C@H](CCC(N)=O)NC1=O)C(=O)N[C@@H](CCCNC(=N)N)C(=O)NCC(=O)N1CCC[C@@H]1C(=O)N[C@@H](CCN)C(=O)N[C@@H](CCCNC(=N)N)C(=O)N[C@@H](Cc1ccc(O)cc1)C(=O)N2` [Ex. 30] (cyclo(YHTCRG[dP][Dab]RYCYS(X3)Q[dP]P); disulfide 4-11): the “Hemolysis at 100 μM” value in series [1] came to 5.5%. In series [3], the remaining at 24 h, 10 μM is 54% and the “human pl. T1/2” value was 1440 min. In series [4], this compound came in with a concentration for 50% growth inhibition (GI50) at 48 h of over 50 µM. In series [5], the GI50 at 48 h was over 50 µM. Besides, the IC50 in series [6] was found to be 55.1 ± 19 nM.

Regarding `CCCCCCCCCCCC(=O)NCC[C@@H]1NC(=O)[C@H](Cc2ccc(O)cc2)NC(=O)[C@@H]2CSSC[C@H](NC(=O)[C@H](C)NC(=O)[C@H](Cc3c[nH]cn3)NC(=O)[C@H](Cc3ccc(O)cc3)NC(=O)[C@@H]3CCCN3C(=O)[C@H]3CCCN3C(=O)[C@H](CCCCN)NC1=O)C(=O)N[C@@H](CCCNC(=N)N)C(=O)N[C@@H](C)C(=O)N1CCC[C@@H]1C(=O)N[C@@H](CCN)C(=O)N[C@@H](CCCNC(=N)N)C(=O)N[C@@H](Cc1ccc(O)cc1)C(=O)N2` [Ex. 11] (cyclo(YHACRA[dP][Dab]RYCY[Dab](Lauroyl)K[dP]P); disulfide 4-11), the “Hemolysis at 100 μM” value in series [1] is given as 0.7%. In series [3], the remaining at 24 h, 10 μM was determined as 82%. In series [3], the “human pl. T1/2” value turned out to be 1440 min. Also, the GI50 at 48 h in series [4] was over 29 µM; in series [5], over 50 µM. Besides, the 50% inhibitory concentration (IC50) in series [6] (setting [7]) came out at 7.3 ± 4.7 nM.
